# Patent US20240173442A1, “COMBINATION THERAPY” (Hoffmann-La Roche Inc., priority 2021, published 2024)
# Key:
# [1] = Protocol 150: body weight, adverse events and toxicity; format: in vivo
# Description: (§1) Primary solid xenografts were established in each B6-huCEA or huCEACAM5 mouse on study day 0 through subcutaneous (SC) or intrapancreatic injection of carcinoembryonic antigen (CEA)-expressing tumor cells. […] Indications of pain, distress, or discomfort include, but are not limited to, acute body weight (BW) loss, scruffy fur, diarrhea, hunched posture, pale skin, and reluctance to move. Poor SC tumor status (e.g. ulceration, teeth marks, or open wounds) may also prompt euthanasia; in the orthotopic model, abdominal swelling indicates increasing tumor burden, which may prompt euthanasia.
# (§2) SC tumor volumes were estimated through manual calipering 3 times per week, calculated according to the formula: volume 0.5× length×width^2. Additional tumor measurements were made as needed depending on the tumor growth rate. In the orthotopic model, the tumor progress was assessed regularly through bioluminescence imaging (BLI). The BW of the animals was measured at least 3 times per week, with additional measurements as needed depending on the health status. Mice whose BW loss exceeded 20% of their initial BW or whose tumor volume reached 3000 mm^3 (Protocols 119, 136, 150) or 2000 mm^3 (Protocol 195) were euthanized immediately.
# No mice were euthanized due to acute post-injection BW loss.
# Reactions included sluggish behaviour, somnolence, and death in 1/14 mice. […]
# [2] = Protocol 136: body weight, adverse events and toxicity; format: in vivo, B6-huCEA mice
# Description: as §1, §2
# No mice were euthanized due to acute post-injection BW loss; 1 tumor-free CEA-PRIT mouse was euthanized on day 117 after a sudden decline in overall status. […]
# [3] = Protocol 195: body weight, adverse events and toxicity; format: in vivo
# [4] = Protocol 119: body weight, adverse events and toxicity; format: in vivo
compound,measurement,setting,value
NC(=O)CN1CCN(CC(N)=O)CCN(CC(N)=O)CCN(CC(N)=O)CC1.[212Pb+2] [^212Pb-DOTAM],body weight change,[1],transient weight loss in irradiated mice
same,body weight change,[2],transient weight loss in irradiated mice
same,body weight change,[3],did not cause any significant weight loss by itself
same,body weight change,[4],transient weight loss in irradiated mice
